Test results reported in US10780090B2, “Heteroaryl compounds useful as inhibitors of SUMO activating enzyme” (Millennium Pharmaceuticals, Inc., priority 2014, dated 2020).

Biological target: recombinant human SAE enzyme (Homo sapiens (Human), UniProt Q9UBT2)
Assay: SAE HTRF enzyme assay
Format: biochemical
Conditions: for inhibition at 0.111 µM: read-out: Percent Inhibition
How it was run: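 HTRF read-out using Eu-cryptate anti-Flag and allophycocyanin anti-GST antibodies, added with EDTA stop buffer and read after 2 h at 24 °C. The preceding reaction ran 105 min at 24 °C: 0.11 nM recombinant SAE, 0.5 μM ATP, Sumo-Flag, Ubc9-GST, pH 7.5. Values given as single-concentration inhibition or IC50.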

[1] = SAE inhibition at compound concentration 0.111 μM
[2] = SAE inhibition, class symbols, legend in nM

Sequence of recombinant human SAE enzyme (Q9UBT2 whole entry): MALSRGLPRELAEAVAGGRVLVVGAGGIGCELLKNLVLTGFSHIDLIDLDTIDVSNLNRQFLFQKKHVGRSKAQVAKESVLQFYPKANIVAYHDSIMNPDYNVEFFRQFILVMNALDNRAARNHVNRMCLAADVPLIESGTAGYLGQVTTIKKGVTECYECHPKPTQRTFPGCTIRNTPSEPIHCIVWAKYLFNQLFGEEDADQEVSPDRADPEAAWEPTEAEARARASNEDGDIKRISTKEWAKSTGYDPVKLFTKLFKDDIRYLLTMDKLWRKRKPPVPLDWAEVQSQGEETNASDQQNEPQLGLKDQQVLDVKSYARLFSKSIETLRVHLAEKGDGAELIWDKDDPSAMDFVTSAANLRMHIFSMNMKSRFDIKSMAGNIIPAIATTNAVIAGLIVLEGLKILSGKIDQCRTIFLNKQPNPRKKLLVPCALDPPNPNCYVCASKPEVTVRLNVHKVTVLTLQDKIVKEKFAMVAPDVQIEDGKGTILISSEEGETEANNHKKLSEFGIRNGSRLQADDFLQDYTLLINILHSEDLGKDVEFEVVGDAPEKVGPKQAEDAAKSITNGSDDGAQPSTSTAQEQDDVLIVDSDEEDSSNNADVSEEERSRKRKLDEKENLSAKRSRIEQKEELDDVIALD
Sequence of recombinant human SAE enzyme (Q9UBE0 whole entry partner): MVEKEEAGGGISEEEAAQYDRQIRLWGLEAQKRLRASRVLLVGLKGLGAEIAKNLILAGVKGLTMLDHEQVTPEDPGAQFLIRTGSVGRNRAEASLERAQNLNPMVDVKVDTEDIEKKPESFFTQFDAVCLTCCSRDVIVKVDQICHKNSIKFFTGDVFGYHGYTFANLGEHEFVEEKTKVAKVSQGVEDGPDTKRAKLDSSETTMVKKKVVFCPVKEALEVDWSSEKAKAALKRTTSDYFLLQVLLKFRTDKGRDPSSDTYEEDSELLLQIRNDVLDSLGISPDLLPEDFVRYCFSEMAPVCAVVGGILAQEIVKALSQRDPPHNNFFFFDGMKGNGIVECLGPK

## COCc1csc(C(=O)c2cncnc2N[C@@H]2C[C@H](COS(N)(=O)=O)[C@@H](O)C2)c1 [I-217, {(1R,2S,4R)-2-Hydroxy-4-[(5-{[4-(methoxymethyl)-2-thienyl]carbonyl}pyrimidin-4-yl)amino]cyclopentyl}methyl sulfamate]
Concentration 0.111 μM
  inhibition at 0.111 µM: 36%
Class symbols A/B/C
  IC50: 100 to 1000 nM

## NS(=O)(=O)OC[C@H]1C[C@@H](Nc2ncncc2C(=O)c2cc(C(O)c3cccc(Cl)n3)cs2)C[C@@H]1O (single isomer, unassigned) [I-29a, [(1R,2S,4R)-4-{[5-({4-[(S)-(6-chloropyridin-2-yl)(hydroxy)methyl]-2-thienyl}carbonyl)pyrimidin-4-yl]amino}-2-hydroxycyclopentyl]methyl sulfamate or [(1R,2S,4R)-4-{[5-({4-[(R)-(6-chloropyridin-2-yl)(hydroxy)methyl]-2-thienyl}carbonyl)pyrimidin-4-yl]amino}-2-hydroxycyclopentyl]methyl sulfamate]
Concentration 0.111 μM
  Percent Inhibition: 97
Class symbols A/B/C
  IC50: < 10 nM

## NS(=O)(=O)OC[C@H]1C[C@@H](Nc2ncncc2C(=O)c2cc(Cc3cccc(Br)c3)c(Cl)s2)[C@H](O)[C@@H]1O [I-76, {(1R,2R,3S,4R)-4-[(5-{[4-(3-bromobenzyl)-5-chloro-2-thienyl]carbonyl}pyrimidin-4-yl)amino]-2,3-dihydroxycyclopentyl}methyl sulfamate]
Concentration 0.111 μM
  inhibition at 0.111 µM: 99%
Class symbols A/B/C
  IC50: < 10 nM

## NS(=O)(=O)OC[C@H]1C[C@@H](Nc2ncncc2C(=O)c2cc([C@@H]3NCCc4ccccc43)cs2)C[C@@H]1O (single isomer, unassigned) [I-283b, [(1R,2S,4R)-2-hydroxy-4-{[5-({4-[(1R)-1,2,3,4-tetrahydroisoquinolin-1-yl]-2-thienyl}carbonyl)pyrimidin-4-yl]amino}cyclopentyl]methyl sulfamate or [(1R,2S,4R)-2-hydroxy-4-{[5-({4-[(1S)-1,2,3,4-tetrahydroisoquinolin-1-yl]-2-thienyl}carbonyl)pyrimidin-4-yl]amino}cyclopentyl]methyl sulfamate]
[1]
  Percent Inhibition: 93%
[2]
  IC50: 10 to 100 nM

## NS(=O)(=O)OC[C@H]1C[C@@H](Nc2ncncc2C(=O)c2cc([C@@H]3OCCc4ccc(Cl)cc43)c(C(F)F)s2)C[C@@H]1O [I-361, (1R,2S,4R)-4-[[5-[4-[(R)-7-chloroisochroman-1-yl]-5-(difluoromethyl)thiophene-2-carbonyl]pyrimidin-4-yl]amino]-2-hydroxy-cyclopentyl]methyl sulfamate and (1R,2S,4R)-4-[[5-[4-[(1S)-7-chloroisochroman-1-yl]-5-(difluoromethyl)thiophene-2-carbonyl]pyrimidin-4-yl]amino}-2-hydroxy-cyclopentyl]methyl sulfamate]
[1]
  Percent Inhibition: 95%
[2]
  IC50: < 10 nM

## NS(=O)(=O)OC[C@H]1C[C@@H](Nc2ncncc2C(=O)c2cc([C@@H]3OCC(F)(F)c4ccccc43)cs2)C[C@@H]1O (single isomer, unassigned) [I-293a, [(1R,2S,4R)-4-{[5-({4-[(1R)-4,4-difluoro-3,4-dihydro-1H-isochromen-1-yl]-2-thienyl}carbonyl)pyrimidin-4-yl]amino}-2-hydroxycyclopentyl]methyl sulfamate or [(1R,2S,4R)-4-{[5-({4-[(1S)-4,4-difluoro-3,4-dihydro-1H-isochromen-1-yl]-2-thienyl}carbonyl)pyrimidin-4-yl]amino}-2-hydroxycyclopentyl]methyl sulfamate]
[1]
  Percent Inhibition: 57%
[2]
  IC50: 10 to 100 nM

## Cc1cn2c(n1)[C@H](c1cc(C(=O)c3cncnc3N[C@@H]3C[C@H](COS(N)(=O)=O)[C@@H](O)C3)sc1C)OCC2 (mixture of isomers) [I-309, [(1R,2S,4R)-2-hydroxy-4-{[5-({5-methyl-4-[(8S)-2-methyl-5,6-dihydro-8H-imidazo[2,1-c][1,4]oxazin-8-yl]-2-thienyl}carbonyl)pyrimidin-4-yl]amino}cyclopentyl]methyl sulfamate and [(1R,2S,4R)-2-hydroxy-4-{[5-({5-methyl-4-[(8R)-2-methyl-5,6-dihydro-8H-imidazo[2,1-c][1,4]oxazin-8-yl]-2-thienyl}carbonyl)pyrimidin-4-yl]amino}cyclopentyl]methyl sulfamate]
[1]
  Percent Inhibition: 98%
[2]
  IC50: < 10 nM

## Cc1sc(C(=O)c2cncnc2N[C@@H]2C[C@H](COS(N)(=O)=O)[C@@H](O)C2)cc1C1OCCc2ccc(C(F)(F)F)nc21 (single isomer, unassigned) [I-297b, [(1R,2S,4R)-2-hydroxy-4-{[5-({5-methyl-4-[(8S)-2-(trifluoromethyl)-5,8-dihydro-6H-pyrano[3,4-b]pyridin-8-yl]-2-thienyl}carbonyl)pyrimidin-4-yl]amino}cyclopentyl]methyl sulfamate or [(1R,2S,4R)-2-hydroxy-4-{[5-({5-methyl-4-[(8R)-2-(trifluoromethyl)-5,8-dihydro-6H-pyrano[3,4-b]pyridin-8-yl]-2-thienyl}carbonyl)pyrimidin-4-yl]amino}cyclopentyl]methyl sulfamate]
[1]
  Percent Inhibition: 99%
[2]
  IC50: < 10 nM

## Cc1sc(C(=O)c2cncnc2N[C@@H]2C[C@H](COS(N)(=O)=O)[C@@H](O)C2)cc1Sc1ccccc1 [I-137, {(1R,2S,4R)-2-hydroxy-4-[(5-{[5-methyl-4-(phenylsulfanyl)-2-thienyl]carbonyl}pyrimidin-4-yl)amino]cyclopentyl}methyl sulfamate]
Concentration 0.111 μM
  inhibition at 0.111 µM: 95%

## NS(=O)(=O)OC[C@H]1C[C@@H](Nc2ncncc2C(=O)c2cc(Cc3cccc(OC(F)F)c3)cs2)C[C@@H]1O [I-113, [(1R,2S,4R)-4-{[5-({4-[3-(difluoromethoxy)benzyl]-2-thienyl}carbonyl)pyrimidin-4-yl]amino}-2-hydroxycyclopentyl]methyl sulfamate]
Concentration 0.111 μM
  inhibition at 0.111 µM: 97%
Class symbols A/B/C
  IC50: < 10 nM

## Cc1sc(C(=O)c2cncnc2N[C@@H]2C[C@H](COS(N)(=O)=O)[C@@H](O)C2)cc1[C@@H]1OCCc2ccc(C(F)(F)F)cc21 (single isomer, unassigned) [I-258a, [(1R,2S,4R)-2-hydroxy-4-{[5-({5-methyl-4-[(1R)-7-(trifluoromethyl)-3,4-dihydro-1H-isochromen-1-yl]-2-thienyl}carbonyl)pyrimidin-4-yl]amino}cyclopentyl]methyl sulfamate or [(1R,2S,4R)-2-hydroxy-4-{[5-({5-methyl-4-[(1S)-7-(trifluoromethyl)-3,4-dihydro-1H-isochromen-1-yl]-2-thienyl}carbonyl)pyrimidin-4-yl]amino}cyclopentyl]methyl sulfamate]
Concentration 0.111 μM
  Percent Inhibition: 98
Class symbols A/B/C
  IC50: < 10 nM

## COc1ccccc1[C@@H](O)c1cc(C(=O)c2cncnc2N[C@@H]2C[C@H](COS(N)(=O)=O)[C@@H](O)C2)sc1Cl (mixture of isomers) [I-85, [(1R,2S,4R)-4-{[5-({5-chloro-4-[(R)-hydroxy(2-methoxyphenyl)methyl]-2-thienyl}carbonyl)pyrimidin-4-yl]amino}-2-hydroxycyclopentyl]methyl sulfamate and [(1R,2S,4R)-4-{[5-({5-chloro-4-[(S)-hydroxy(2-methoxyphenyl)methyl]-2-thienyl}carbonyl)pyrimidin-4-yl]amino}-2-hydroxycyclopentyl]methyl sulfamate]
Concentration 0.111 μM
  Percent Inhibition: 97
Class symbols A/B/C
  IC50: < 10 nM

## NS(=O)(=O)OC[C@H]1C[C@@H](Nc2ncncc2C(=O)c2cc([C@@]3(C4CCCCC4)CCCO3)cs2)C[C@@H]1O (mixture of isomers) [I-166, [(1R,2S,4R)-4-{[5-({4-[(2S)-2-cyclohexyltetrahydrofuran-2-yl]-2-thienyl}carbonyl)pyrimidin-4-yl]amino}-2-hydroxycyclopentyl]methyl sulfamate and [(1R,2S,4R)-4-{[5-({4-[(2R)-2-cyclohexyltetrahydrofuran-2-yl]-2-thienyl}carbonyl)pyrimidin-4-yl]amino}-2-hydroxycyclopentyl]methyl sulfamate]
Concentration 0.111 μM
  Percent Inhibition: 93
Class symbols A/B/C
  IC50: 10 to 100 nM

## NS(=O)(=O)OC[C@H]1C[C@@H](Nc2ncncc2C(=O)c2cc(CC3=CCOC3)cs2)C[C@@H]1O [I-193, {(1R,2S,4R)-4-[(5-{[4-(2,5-dihydrofuran-3-ylmethyl)-2-thienyl]carbonyl}pyrimidin-4-yl)amino]-2-hydroxycyclopentyl}methyl sulfamate]
Concentration 0.111 μM
  inhibition at 0.111 µM: 72%
Class symbols A/B/C
  IC50: 10 to 100 nM

## NS(=O)(=O)OC[C@H]1C[C@@H](Nc2ncncc2C(=O)c2cc(Cc3cccc(Cl)c3)c(Cl)o2)C[C@@H]1O [I-72, [(1R,2S,4R)-4-({5-[5-chloro-4-(3-chlorobenzyl)-2-furoyl]pyrimidin-4-yl}amino)-2-hydroxycyclopentyl]methyl sulfamate]
Concentration 0.111 μM
  inhibition at 0.111 µM: 98%
Class symbols A/B/C
  IC50: < 10 nM

## CC[C@H](C)[C@H](N)C(=O)O[C@H]1C[C@H](Nc2ncncc2C(=O)c2cc([C@@H]3OCCc4ccc(Cl)cc43)c(C)s2)C[C@@H]1COS(N)(=O)=O.Cl [I-363]
[1]
  Percent Inhibition: 57%

## NS(=O)(=O)OC[C@H]1C[C@@H](Nc2ncncc2C(=O)c2cc(Cc3cccc(Br)c3)cs2)C[C@@H]1O [I-59, {(1R,2S,4R)-4-[(5-{[4-(3-Bromobenzyl)-2-thienyl]carbonyl}pyrimidin-4-yl)amino]-2-hydroxycyclopentyl}methyl sulfamate]
Concentration 0.111 μM
  inhibition at 0.111 µM: 99%

## Cc1sc(C(=O)c2cncnc2N[C@@H]2C[C@H](COS(N)(=O)=O)[C@@H](O)C2)cc1[C@H](N)c1cccc(Cl)c1 (single isomer, unassigned) [I-6a, [(1R,2S,4R)-4-{[5-({4-[(R)-amino(3-chlorophenyl)methyl]-5-methyl-2-thienyl}carbonyl)pyrimidin-4-yl]amino}-2-hydroxycyclopentyl]methyl sulfamate or [(1R,2S,4R)-4-{[5-({4-[(S)-amino(3-chlorophenyl)methyl]-5-methyl-2-thienyl}carbonyl)pyrimidin-4-yl]amino}-2-hydroxycyclopentyl]methyl sulfamate]
Concentration 0.111 μM
  Percent Inhibition: 98
Class symbols A/B/C
  IC50: < 10 nM
